Test results as given in paper PMC6953423 (Journal of medicinal chemistry, 2019).

Legend:
rats = conditions: cited from earlier work; for seeking drugs of abuse (cocaine or methamphetamine) after a period of extinction: rats pretreated
Kinetic solubility = assay type: physicochemical; conditions: phosphate buffer, mean ± SD
[1] = cited from earlier work
CB1 [2] = target: T1, CB1 (Homo sapiens, UniProt P21554); assay: CB1 calcium mobilization assay; assay type: cell-based; conditions: IC50 relative to 2
T1 sequence (P21554 whole entry): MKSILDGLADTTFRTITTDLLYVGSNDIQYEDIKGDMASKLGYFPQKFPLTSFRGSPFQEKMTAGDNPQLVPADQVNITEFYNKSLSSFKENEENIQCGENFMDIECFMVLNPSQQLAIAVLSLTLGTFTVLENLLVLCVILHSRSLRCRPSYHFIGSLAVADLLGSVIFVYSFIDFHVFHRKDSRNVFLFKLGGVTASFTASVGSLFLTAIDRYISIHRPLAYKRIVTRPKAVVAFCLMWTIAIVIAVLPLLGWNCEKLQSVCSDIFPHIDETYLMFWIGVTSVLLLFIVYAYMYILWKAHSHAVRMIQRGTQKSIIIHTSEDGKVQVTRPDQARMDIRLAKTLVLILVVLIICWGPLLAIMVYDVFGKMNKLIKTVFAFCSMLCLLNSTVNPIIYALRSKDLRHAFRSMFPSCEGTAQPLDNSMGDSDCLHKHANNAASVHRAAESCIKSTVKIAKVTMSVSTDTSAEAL

CB1 [3] = target: T1, CB1; conditions: absence of CP55,940; up to 10 μM
male Sprague-Dawley rats = assay: Drug-induced reinstatement of extinguished cocaine-seeking behavior; assay type: in vivo, rat; conditions: 10 mg/kg i.p. pretreatment, cocaine prime 10 mg/kg i.p., p > 0.05
P-gp (MDR1) = assay: in vitro; conditions: dog, MDCK-MDR1, pH 7.4

SMILES	seeking drugs of abuse (cocaine or methamphetamine) after a period of extinction (rats)	fold less potent than 2 in calcium assay (CB1 [2])	also measured
CCc1c(C(=O)NCCc2ccc(N3CCCCC3)cc2)[nH]c2ccc(Cl)cc12 [Compound 1]	less likely to seek drugs of abuse	–	–
O=C(Nc1ccc(Cl)cc1)Nc1cccc(-c2cccc(N3CCCC3)n2)c1 [Compound 2, 1-(4-chlorophenyl)-3-{3-[6-(pyrrolidin-1-yl)pyridin-2-yl]phenyl}urea]	less likely to seek drugs of abuse	–	solubility at 2 h (Kinetic solubility): < 1 µM
N#Cc1ccc(NC(=O)Nc2cccc(-c3cccc(N4CCCC4)n3)c2)cc1 [Compound 3]	–	–	effect on THC in drug discrimination [1]: reduced THC’s potency
O=C(Nc1ccc(Cl)cc1)Nc1cccc(-c2ccc(F)cc2)c1 [Compound 4]	less likely to seek drugs of abuse	–	prime-induced reinstatement of cocaine seeking (rats): attenuated prime-induced restatement of cocaine seeking
O=C(Nc1ccc(Cl)cc1)Nc1cc(-c2ccccc2)ccn1 [Compound 7, 1‐(4‐Chlorophenyl)‐3‐(4‐phenylpyridin‐2‐yl)urea]	–	4.7 fold	–
O=C(Nc1ccc(Cl)cc1)Nc1cncc(-c2ccccc2)c1 [Compound 9, 1‐(4‐Chlorophenyl)‐3‐(5‐phenylpyridin‐3‐yl)urea]	–	8.8 fold	–
O=C(Nc1ccc(Cl)cc1)Nc1ccnc(-c2ccccc2)c1 [Compound 10, 1‐(4‐Chlorophenyl)‐3‐(2‐phenylpyridin‐4‐yl)urea]	–	7.1 fold	–
O=C(Nc1ccc(Cl)cc1)Nc1ccc(-c2ccccc2)s1 [Compound 11, 1‐(4‐Chlorophenyl)‐3‐(5‐phenylthiophen‐2‐yl)urea]	–	–	inverse agonism (in words) (CB1 [3]): very little inverse agonism; effect on drug-induced cocaine-seeking behavior (male Sprague-Dawley rats): failed to significantly reduce; efflux ratio at 10 μM (P-gp (MDR1)): < 2.5
